# According to patent US6235717A, “Pharmaceutical compounds” (Glaxo Wellcome Inc., priority 1993, dated 2001):
# pIC50: −log10 of the molar value.
# Target: endothelin converting enzyme (ECE) (Sus scrofa, UniProt F1SU04)
# Experiment: "ECE" assay with porcine aortic "ECE" prep, fluorogenic substrate Suc-Ile-Ile-Trp-MCA
# Assay type: biochemical
# Details: porcine aortic endothelial cell ECE prep; 80 μM Suc-Ile-Ile-Trp-MCA; 15-20 min preincubation; overnight at 37° C.; pH 7.0; AMC fluorescence
# In short: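 Enzyme was a partially purified porcine aortic endothelial-cell lysate (100,000 g supernatant, anion-exchange fractions). Assay buffer was 100 mM Tris-HCl pH 7.0 with 20 mM CaCl2 and 80 μM substrate. Compound was preincubated with enzyme 15–20 min and the reaction ran overnight at 37 °C. AMC fluorescence was read at 360/460 nm, and IC50 came from a Hill plot.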
# endothelin converting enzyme (ECE), sequence (F1SU04 entry or part of it): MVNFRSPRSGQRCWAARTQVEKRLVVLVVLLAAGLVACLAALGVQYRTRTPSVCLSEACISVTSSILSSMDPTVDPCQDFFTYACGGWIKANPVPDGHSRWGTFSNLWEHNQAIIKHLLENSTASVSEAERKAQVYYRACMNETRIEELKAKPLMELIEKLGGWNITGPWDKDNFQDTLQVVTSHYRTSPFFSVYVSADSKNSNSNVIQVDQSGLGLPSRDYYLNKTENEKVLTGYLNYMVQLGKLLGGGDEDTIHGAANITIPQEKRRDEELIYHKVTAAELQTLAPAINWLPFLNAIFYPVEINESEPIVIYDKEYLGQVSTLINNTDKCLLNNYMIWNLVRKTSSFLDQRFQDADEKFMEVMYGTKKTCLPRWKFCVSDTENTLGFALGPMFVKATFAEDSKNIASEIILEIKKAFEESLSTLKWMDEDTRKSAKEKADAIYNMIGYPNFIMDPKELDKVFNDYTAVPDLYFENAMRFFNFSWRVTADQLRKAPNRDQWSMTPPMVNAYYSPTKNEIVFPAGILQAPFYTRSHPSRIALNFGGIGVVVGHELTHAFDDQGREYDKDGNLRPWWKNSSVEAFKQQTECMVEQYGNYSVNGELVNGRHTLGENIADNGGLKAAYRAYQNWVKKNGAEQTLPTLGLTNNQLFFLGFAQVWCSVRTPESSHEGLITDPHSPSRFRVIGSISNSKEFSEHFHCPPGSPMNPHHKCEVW
row,Substance,pIC50
1,N-[(benzyloxy)carbonyl]-L-aspart-1-yl]-L-isoleucyl-L-isoleucine-L-N-[1-dimethoxymethyl]2-(1H-indol-3-yl)ethyl]amide [Example 76],5.59
2,"N-[[5-(hexahydro-2-oxo-1H-thieno[3,4-d]imidazol-4-yl]valeryl-L-isoleucyl-L- isoleucine-L-N-[1-formyl]2-(1H-indol-3-yl)ethyl]amide [Example 63]",7.52
3,"N-[[[5-(hexahydro-2-oxo-1H-thieno[3,4-d]imidazol-4-yl)valeramido]hexanoyl]- L-isoleucyl-L-isoleucine-L-N-[1-formyl]2-(1H-indol-3-yl-ethyl]amide [Example 67]",7.10
4,N-[benzyloxy)carbonyl]-L-aspart-1-yl]-L-isoleucyl-L-isoleucine-L-N-[1-formyl]2-(1H-indol-3-yl)ethyl]amide [Example 65],7.00
5,"[[5-(hexahydro-2-oxo-1H-thieno[3,4-d]imidazol-4-yl]valeryl-L-isoleucyl-L-isoleucine-L-N-[1-dimethoxymethyl]2-(1H-indol-3-yl)ethyl]amide [Example 62]",5.70
